According to US20180008587A1, “THIOHYDANTOIN ANDROGEN RECEPTOR ANTAGONISTS FOR THE TREATMENT OF CANCER” (Jaressen Pharmaceutica NV, priority 2016, published 2018):
Where a chain is given by its changes, count along the chain named.

Legend:
[1] = target: T1, AR W741C (Homo sapiens, UniProt P10275, W742C); test: Luciferase transcriptional reporter assay, mutant AR, HepG2, antagonist mode; assay type: cell-based; conditions: HepG2, 90 pM R1881, 48 hours; * denotes incomplete inhibition (otherwise 100%); read-out: Antagonism; IC50, AR construct W741C
T1 construct: expressed in transfected cells; host or cells: HepG2
T1 sequence (P10275 1-920 W742C): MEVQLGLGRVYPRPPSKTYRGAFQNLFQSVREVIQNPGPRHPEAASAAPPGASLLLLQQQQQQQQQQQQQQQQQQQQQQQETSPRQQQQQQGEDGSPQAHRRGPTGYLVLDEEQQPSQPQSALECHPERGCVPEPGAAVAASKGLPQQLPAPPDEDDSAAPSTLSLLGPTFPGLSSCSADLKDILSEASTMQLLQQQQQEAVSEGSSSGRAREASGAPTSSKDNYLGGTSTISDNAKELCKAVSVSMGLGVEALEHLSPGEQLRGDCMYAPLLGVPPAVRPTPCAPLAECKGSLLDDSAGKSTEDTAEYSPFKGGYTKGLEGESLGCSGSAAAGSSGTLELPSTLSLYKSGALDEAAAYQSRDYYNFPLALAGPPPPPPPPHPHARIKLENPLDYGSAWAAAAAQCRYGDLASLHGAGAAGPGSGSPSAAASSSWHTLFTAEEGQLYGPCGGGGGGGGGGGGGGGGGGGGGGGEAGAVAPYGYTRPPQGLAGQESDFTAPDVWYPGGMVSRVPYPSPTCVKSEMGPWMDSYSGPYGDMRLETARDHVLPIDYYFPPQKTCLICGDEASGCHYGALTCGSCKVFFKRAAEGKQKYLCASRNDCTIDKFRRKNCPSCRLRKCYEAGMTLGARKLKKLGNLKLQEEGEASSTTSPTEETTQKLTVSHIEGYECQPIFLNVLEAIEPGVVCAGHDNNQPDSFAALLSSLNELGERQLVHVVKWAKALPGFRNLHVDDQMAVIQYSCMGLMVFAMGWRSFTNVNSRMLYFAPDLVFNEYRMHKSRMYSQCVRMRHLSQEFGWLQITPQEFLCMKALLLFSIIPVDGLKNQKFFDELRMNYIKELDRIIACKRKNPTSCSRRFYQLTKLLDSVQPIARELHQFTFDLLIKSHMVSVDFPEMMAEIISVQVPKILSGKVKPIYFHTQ
Description: (§1) HepG2 cells were maintained in EMEM supplemented with 10% FBS. One day before transfection, the media was changed to EMEM with 10% CSS. T-150 flasks were transiently transfected using 120 μL Lipofectamine 2000 (Life Technologies), 30 μg mutant cDNA (expression vector)—mutant cDNA tested were L701H, T877A, W741C and H874Y—and 40 μg 4×ARE-Luciferase (reporter vector) in OptiMEM and the flasks were incubated overnight. Cells were then trypsinized, counted and resuspended at 500,000 cells/mL. For agonist mode, the compounds of Formula (I) are serially diluted and 50 μL of the compound added per well. 50 μL of the cells are added to each well and incubated for 48 hours. For antagonist mode, a final concentration of 90 pM R1881 was added to the diluted compounds and incubated for 48 hours. The plates were then assayed using SteadyGlo and read on the Envision. Percent Stimulation and Inhibition is determined and analyzed using GraphPad Prism.
(§2) All values are calculated relative to the activity of R1881 induced androgen receptor activity (n≧3).

[2] = target: T2, AR H874Y (Homo sapiens, UniProt P10275, H875Y); test: as above; assay type: cell-based; conditions: HepG2, 90 pM R1881, 48 hours; * denotes incomplete inhibition (otherwise 100%); read-out: Antagonism; IC50, AR construct H874Y
T2 construct: expressed in transfected cells; host or cells: HepG2
T2 sequence (P10275 1-920 H875Y): T1 sequence (P10275 1-920 W742C) with C742W, H875Y
Description: as §1, §2

IC50 [1]: 5.79 µM
IC50 [2]: 1.95 µM
SMILES: N#Cc1ncc(N2C(=O)C3(CCC3)N(c3ccc(OC4CCNCC4)cc3)C2=S)cc1C(F)(F)F [Cpd 35, 5-[5-oxo-8-[4-(4-piperidyloxy)phenyl]-7-thioxo-6,8-diazaspiro[3.4]octan-6-yl]-3-(trifluoromethyl)pyridine-2-carbonitrile]
